The values that follow are results of earlier work, collected in patent EP0238198A2, “Method of modifying the lipid structure function and expression of cell membranes and pharmaceutical compositions for use therein” (Habib, Nagy Adly, priority 1986, dated 1987).

This series deals with hepatoma cell lines. Particulars: in vitro; cited from earlier work.

Take `CCCCCCCCC1=C(CCCCCCCC(=O)O)C1` [sterculic acid]: the growth inhibition entry is on record as “growth inhibition” and the saturation index entry is recorded as “increase in their saturation index”.
